{"source": "patent US9980953B2", "about": "“Combined composition for preventing or treating cancer comprising a benzophenone thiazole derivatives as a VDA and topoisomerase inhibitor” (CHONG KUN DANG PHARMACEUTICAL CORP., priority 2016, dated 2018)", "key": {"Colo205 xenograft": {"system": "Colo205 xenograft", "assay": "Anti-cancer effect in a Colo205 xenograft mouse model", "format": "in vivo, BALB/c-nu/nu male mice", "details": "irinotecan 20 mg/kg once per 4 days injection; for size of tumor compared to administration group of an excipient: formula 1 4 mg/kg every day oral, during administration period (10 weeks); for dead mice: observed for 85 days, formula 1 4 mg/kg daily oral", "source_text": "A human colorectal cancer cell line, Colo205 was purchased from ATCC (USA). The Colo205 cell line was maintained with RPMI1640 (Gibco, USA) including 10% fetal bovine serum (FBS; Gibco, Grand Island, N.Y., USA) and 1% antibiotics (Gibco, USA).\nThe human colorectal carcinoma, Colo205 cell was subcutaneously administered in BALB/c-nu/nu male mice (5×10^6 cell/head), and after grouping in order to making an average size of tumor 165˜167 mm^3, used in experiments.\nA compound of formula 1 was prepared by the preparation method disclosed in International Laid-open Patent Publication WO 2009-119980, and prepared at 0.4 mg/ml concentration by dissolving with distilled water.\nIrinotecan (Boryung, Korea) was prepared at 2 mg/ml concentration by diluting with 5% glucose saline solution. The solution to be used was prepared on the day of use, and remained solution was discarded.\nThe anti-cancer effect of the compound of formula 1 and irinotecan was estimated in the Colo205 xenograft model. Experimental groups were divided into the following administration groups. • Control group: vehicle • Single administration group of the compound of formula 1: the compound of formula 1 (4 mg/kg, every day, oral) • Single administration group of irinotecan: irinotecan (20 mg/kg, once per 4 days, injection) • Coadministration group: the compound of formula 1 (4 mg/kg, every day, oral), irinotecan (20 mg/kg, once per 4 days, injection)\n(§1) All the experimental groups were orally and intraperitoneally administered for 10 weeks. Toxicity was observed by measuring weight of mice, and the growth of tumor was measured using calipers during experimental period. The volume of tumor was calculated according to the following calculation formula. tumor volume=(length×width^2)/2\nThe data of size of tumor, regression of tumor, and body weight changes was tested using Bartlett's test at significance level α=0.05, and as a result of the test, data having no significance was tested using one-way analysis of variance at significance level α=0.05, and data having significance was tested using Kruskal-Wallis test at significance level α=0.05.\nStatistical analysis between each group was performed using GraphPad PRISM® Version 5.0 (GraphPad Software, USA).\nVehicle administration group was euthanized at the day 43 because cancer became too big."}, "HCT116 xenograft": {"system": "HCT116 xenograft", "assay": "Anti-cancer effect in a HCT116 xenograft mouse model", "format": "in vivo, Athymic nude mouse (Hsd:Athymic Nude-Foxn1nu) male mice", "details": "formula 1 5 mg/kg once a week injection, irinotecan 20 mg/kg once per 4 days injection, intraperitoneal, 4 weeks", "protocol": "A human colorectal cancer cell line, HCT116 was purchased from ATCC (USA). The HCT116 cell line was maintained with RPMI1640 (Gibco, USA) including 10% fetal bovine serum (FBS; Gibco, USA).\nThe human colorectal carcinoma, HCT116 cell was subcutaneously administered in Athymic nude mouse (Hsd:Athymic Nude-Foxn1^nu) male mice (5×10^6 cell/head), and used in experiments when the size of tumor became 150-200 mm^3.\nA compound of formula 1 was prepared by the preparation method disclosed in International Laid-open Patent Publication WO 2009-119980, and prepared at 0.5 mg/ml concentration by dissolving with 0.9% saline solution.\nIrinotecan (Jeilpharm, Korea) was prepared at 2 mg/ml concentration by diluting with 5% dextrose solution.\nThe anti-cancer effect of the compound of formula 1 and irinotecan was estimated in the HCT116 xenograft model. […]\nas §1, with “were” for “were orally and”, “4” for “10”, “volume=(length×width^2)/2 […]” for “volume=(length×width^2)/2”"}}, "data": [{"molecule": "CCc1c2c(nc3ccc(OC(=O)N4CCC(N5CCCCC5)CC4)cc13)-c1cc3c(c(=O)n1C2)COC(=O)[C@]3(O)CC", "note": "[irinotecan]", "values": [{"measurement": "size of tumor compared to administration group of an excipient", "setting": "Colo205 xenograft", "value": "significantly decreased"}, {"measurement": "dead mice", "setting": "Colo205 xenograft", "value": "no dead subject"}, {"measurement": "size of tumor compared to administration group of an excipient", "setting": "HCT116 xenograft", "value": "significantly decreased"}]}, {"molecule": "COc1cc(C(=O)c2ccc(-c3csc(NC(=O)[C@@H](N)C(C)C)n3)cc2-n2cncn2)cc(OC)c1OC", "note": "[compound of formula 1, (S)-N-(4-(3-(1H-1,2,4-triazol-1-yl) -4-(3,4,5-trimethoxybenzoyl)phenyl)thiazol-2-yl)-2-amino-3-methylbutanamide]", "values": [{"measurement": "size of tumor compared to administration group of an excipient", "setting": "Colo205 xenograft", "value": "significantly decreased"}, {"measurement": "dead mice", "setting": "Colo205 xenograft", "value": 8, "unit": "mice"}, {"measurement": "size of tumor compared to administration group of an excipient", "setting": "HCT116 xenograft", "value": "significantly decreased"}]}]}
